pIC50: −log10 of the molar value.
Molecular target: T1, human Prostaglandin D Synthase (GST2) (Homo sapiens, UniProt O60760)
T1 construct: the open reading frame of human Prostaglandin D Synthase was amplified from cDNA; made in house; host or cells: E. coli TOP10F'
Assay: Homogeneous biochemical assay of human Prostaglandin D Synthase (GST2) based on its glutathion-S-transferase activity (GSH conjugation to monochlorobimane, fluorescence)
Settings: given beside the compound name in Examples 1 to 167; read-out: Potency Range (GST2 IC50)
How it was run: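 N-His-tagged human PGD synthase from E. coli, assayed via its GST activity: GSH conjugation to monochlorobimane in 50 mM MES/KOH pH 6.1, 0.7 mM GSH, 2 mM MgCl2. Compounds at final picomolar to triple-digit micromolar concentrations.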

T1 sequence (O60760 whole entry): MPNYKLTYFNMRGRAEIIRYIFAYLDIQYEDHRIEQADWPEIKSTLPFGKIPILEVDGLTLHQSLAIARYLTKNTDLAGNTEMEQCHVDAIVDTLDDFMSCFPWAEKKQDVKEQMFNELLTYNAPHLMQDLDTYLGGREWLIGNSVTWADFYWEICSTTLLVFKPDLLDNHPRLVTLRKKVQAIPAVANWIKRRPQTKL

Structure (SMILES)	pIC50
O=C(Nc1ccc(NC(=O)N2CCN(C(=O)c3cccc(F)c3)CC2)cc1)c1ccc(F)cc1 [Compound 120, 4-(3-Fluoro-benzoyl)-piperazine-1-carboxylic acid [4-(4-fluoro-benzoylamino)-phenyl]-amide]	7.00 to 7.96
CC(C)C(=O)Nc1ccc(NC(=O)N2CCN(C(=O)c3cccc(F)c3)CC2)cc1 [Compound 121, 4-(3-Fluoro-benzoyl)-piperazine-1-carboxylic acid (4-isobutyrylamino-phenyl)-amide]	6.00 to 7.00
O=C(Nc1ccc(NC(=O)N2CCN(C(=O)c3cccc(F)c3)CC2)cc1)c1cccnc1 [Compound 122, 4-(3-Fluoro-benzoyl)-piperazine-1-carboxylic acid {4-[(pyridine-3-carbonyl)-amino]-phenyl}-amide]	6.00 to 7.00
O=C(Nc1ccc(NC(=O)N2CCN(C(=O)c3cccc(F)c3)CC2)cc1)C1CCOCC1 [Compound 124, 4-(3-Fluoro-benzoyl)-piperazine-1-carboxylic acid {4-[(tetrahydro-pyran-4-carbonyl)-amino]-phenyl}-amide]	6.00 to 7.00
O=C(Nc1ccc(NS(=O)(=O)c2ccccc2)cc1)N1CCN(C(=O)c2cccc(F)c2)CC1 [Compound 125, 4-(3-Fluoro-benzoyl)-piperazine-1-carboxylic acid (4-benzenesulfonylamino-phenyl)-amide]	7.00 to 7.96
O=C(Nc1ccc(NS(=O)(=O)C2CC2)cc1)N1CCN(C(=O)c2cccc(F)c2)CC1 [Compound 127, 4-(3-Fluoro-benzoyl)-piperazine-1-carboxylic acid (4-cyclopropanesulfonylamino-phenyl)-amide]	7.00 to 7.96
O=C(Nc1ccc(NS(=O)(=O)c2ccc(F)cc2)cc1)N1CCN(C(=O)c2cccc(F)c2)CC1 [Compound 128, 4-(3-Fluoro-benzoyl)-piperazine-1-carboxylic acid [4-(4-fluoro-benzenesulfonylamino)-phenyl]-amide]	7.00 to 7.96
CS(=O)(=O)N(c1ccc(NC(=O)N2CCN(C(=O)c3cccc(F)c3)CC2)cc1)S(C)(=O)=O [Compound 129, N-{4-[bis(methylsulfonyl)amino]phenyl}-4-(3-fluorobenzoyl)piperazine-1-carboxamide]	7.00 to 7.96
O=C(Nc1cccc(NS(=O)(=O)c2ccc(F)cc2)c1)N1CCN(C(=O)c2cccc(F)c2)CC1 [Compound 130, 4-(3-Fluoro-benzoyl)-piperazine-1-carboxylic acid [3-(4-fluoro-benzenesulfonylamino)-phenyl]-amide]	6.00 to 7.00
O=C(Nc1cccc(NS(=O)(=O)C2CC2)c1)N1CCN(C(=O)c2cccc(F)c2)CC1 [Compound 131, 4-(3-Fluoro-benzoyl)-piperazine-1-carboxylic acid (3-cyclopropanesulfonylamino-phenyl)-amide]	6.00 to 7.00
O=C(Nc1ccc(NS(=O)(=O)C2CC2)cc1)N1CCN(C(=O)c2cc(F)ccc2F)CC1 [Compound 132, 4-(2,5-Difluoro-benzoyl)-piperazine-1-carboxylic acid (4-cyclopropanesulfonylamino-phenyl)-amide]	6.00 to 7.00
CS(=O)(=O)Nc1ccc(NC(=O)N2CCN(C(=O)c3cc(F)ccc3F)CC2)cc1 [Compound 133, 4-(2,5-Difluoro-benzoyl)-piperazine-1-carboxylic acid (4-methanesulfonylamino-phenyl)-amide]	6.00 to 7.00
O=C(Nc1ccc([N+](=O)[O-])c(F)c1)N1CCN(C(=O)c2cccc(F)c2)CC1 [Compound 134, 4-(3-Fluoro-benzoyl)-piperazine-1-carboxylic acid (3-fluoro-4-nitro-phenyl)-amide]	6.00 to 7.00
O=C(Nc1ccc(-c2nnn[nH]2)cc1)N1CCN(C(=O)c2cccc(F)c2)CC1 [Compound 135, 4-(3-Fluoro-benzoyl)-piperazine-1-carboxylic acid [4-(1H-tetrazol-5-yl)-phenyl]-amide]	7.00 to 7.96
Nc1ccc2nc(NC(=O)N3CCN(C(=O)c4cccc(F)c4)CC3)sc2c1 [Compound 136, 4-(3-Fluoro-benzoyl)-piperazine-1-carboxylic acid (6-amino-benzothiazol-2-yl)-amide]	7.00 to 7.96
O=C(Nc1nc2ccc(NS(=O)(=O)C3CC3)cc2s1)N1CCN(C(=O)c2cccc(F)c2)CC1 [Compound 137, 4-(3-Fluoro-benzoyl)-piperazine-1-carboxylic acid (6-cyclopropanesulfonylamino-benzothiazol-2-yl)-amide]	7.00 to 7.96
O=C(O)c1ccc2nc(NC(=O)N3CCN(C(=O)c4cccc(F)c4)CC3)sc2c1 [Compound 138, 2-{[4-(3-Fluoro-benzoyl)-piperazine-1-carbonyl]-amino}-benzothiazole-6-carboxylic acid]	7.00 to 7.96
O=C(Nc1nc2ccc(C(=O)N3CCOCC3)cc2s1)N1CCN(C(=O)c2cccc(F)c2)CC1 [Compound 139, 4-(3-Fluoro-benzoyl)-piperazine-1-carboxylic acid [6-(morpholine-4-carbonyl)-benzothiazol-2-yl]-amide]	7.00 to 7.96
O=C(Nc1ccc2nc(NC(=O)N3CCN(C(=O)c4cccc(F)c4)CC3)sc2c1)c1ccccn1 [Compound 140, 4-(3-Fluoro-benzoyl)-piperazine-1-carboxylic acid {6-[(pyridine-2-carbonyl)-amino]-benzothiazol-2-yl}-amide]	7.00 to 7.96

Structure (SMILES)	pIC50
NC(=O)c1ccc2nc(NC(=O)N3CCN(C(=O)c4cccc(F)c4)CC3)sc2c1 [Compound 141, 2-{[4-(3-Fluoro-benzoyl)-piperazine-1-carbonyl]-amino}-benzothiazole-6-carboxylic acid amide]	7.00 to 7.96
CC(C)c1noc(-c2ccc(NC(=O)N3CCN(C(=O)c4cccc(F)c4)CC3)cc2)n1 [Compound 142, 4-(3-Fluoro-benzoyl)-piperazine-1-carboxylic acid [4-(3-isopropyl-[1,2,4]oxadiazol-5-yl)-phenyl]-amide]	6.00 to 7.00
O=C(Nc1ccc(-n2cccn2)c(F)c1)N1CCN(C(=O)c2cccc(F)c2)CC1 [Compound 143]	6.00 to 7.00
O=C(Nc1ccc(-n2ccnc2)c(F)c1)N1CCN(C(=O)c2cccc(F)c2)CC1 [Compound 144]	6.00 to 7.00
O=C(Nc1ccc(-n2cncn2)c(F)c1)N1CCN(C(=O)c2cccc(F)c2)CC1 [Compound 145]	6.00 to 7.00
O=C(Nc1ccc(N2CCN(c3ccccn3)CC2)c(F)c1)N1CCN(C(=O)c2cccc(F)c2)CC1 [Compound 146, 4-(3-Fluoro-benzoyl)-piperazine-1-carboxylic acid [3-fluoro-4-(4-pyridin-2-yl-piperazin-1-yl)-phenyl]-amide]	7.00 to 7.96
O=C(Nc1ccc(-c2cccnc2)c(F)c1)N1CCN(C(=O)c2cccc(F)c2)CC1 [Compound 147, 4-(3-Fluoro-benzoyl)-piperazine-1-carboxylic acid (3-fluoro-4-pyridin-3-yl-phenyl)-amide]	7.00 to 7.96
O=C(Nc1ccc(C(F)(F)F)cc1)N1CCN(C(=O)c2cc(F)ccc2F)CC1 [Compound 148, 4-(2,5-Difluoro-benzoyl)-piperazine-1-carboxylic acid (4-trifluoromethyl-phenyl)-amide]	6.00 to 7.00
O=C(Nc1ccc(C(F)(F)F)cc1)N1CCN(C(=O)c2cccc(F)c2)CC1 [Compound 149, 4-(3-Fluoro-benzoyl)-piperazine-1-carboxylic acid (4-trifluoromethyl-phenyl)-amide]	6.00 to 7.00
O=C(c1cccc(F)c1)N1CCN(C(=S)Nc2ccc(N3CCOCC3)nc2)CC1 [Compound 151, 4-(3-Fluoro-benzoyl)-piperazine-1-carbothioic acid (6-morpholin-4-yl-pyridin-3-yl)-amide]	7.00 to 7.96
Cc1ccccc1C(=O)N1CCN(C(=S)Nc2ccc(N3CCOCC3)nc2)CC1 [Compound 152, 4-(2-Methyl-benzoyl)-piperazine-1-carbothioic acid (6-morpholin-4-yl-pyridin-3-yl)-amide]	7.00 to 7.96
O=C(c1cccc([N+](=O)[O-])c1)N1CCN(C(=S)Nc2ccc(N3CCOCC3)nc2)CC1 [Compound 153, 4-(3-Nitro-benzoyl)-piperazine-1-carbothioic acid (6-morpholin-4-yl-pyridin-3-yl)-amide]	6.00 to 7.00
NC(=O)c1cccc(C(=O)N2CCN(C(=O)Nc3ccc(F)cc3)CC2)c1 [Compound 157, 4-(3-Carbamoyl-benzoyl)-piperazine-1-carboxylic acid (4-fluoro-phenyl)-amide]	6.00 to 7.00
NC(=O)c1cccc(NC(=O)N2CCN(C(=O)c3cccc(F)c3)CC2)c1 [Compound 158, 4-(3-Fluoro-benzoyl)-piperazine-1-carboxylic acid (3-carbamoyl-phenyl)-amide]	6.00 to 7.00
O=C(Nc1cccc(-c2ncn[nH]2)c1)N1CCN(C(=O)c2cccc(F)c2)CC1 [Compound 159, 4-(3-Fluoro-benzoyl)-piperazine-1-carboxylic acid [3-(2H-[1,2,4]triazol-3-yl)-phenyl]-amide]	6.00 to 7.00
NC(=O)c1cc(NC(=O)N2CCN(C(=O)c3cccc(F)c3)CC2)ccc1F [Compound 160, 4-(3-Fluoro-benzoyl)-piperazine-1-carboxylic acid (3-carbamoyl-4-fluoro-phenyl)-amide]	6.00 to 7.00
O=C(Nc1ccc(F)c(-c2ncn[nH]2)c1)N1CCN(C(=O)c2cccc(F)c2)CC1 [Compound 161, 4-(3-Fluoro-benzoyl)-piperazine-1-carboxylic acid [4-fluoro-3-(2H-[1,2,4]triazol-3-yl)-phenyl]-amide]	6.00 to 7.00
CC(C)c1noc(-c2cccc(NC(=O)N3CCN(C(=O)c4cccc(F)c4)CC3)c2)n1 [Compound 162, 4-(3-Fluoro-benzoyl)-piperazine-1-carboxylic acid [3-(3-isopropyl-[1,2,4]oxadiazol-5-yl)-phenyl]-amide]	7.00 to 7.96
CC(C)c1noc(-c2cc(NC(=O)N3CCN(C(=O)c4cccc(F)c4)CC3)ccc2F)n1 [Compound 163, 4-(3-Fluoro-benzoyl)-piperazine-1-carboxylic acid [4-fluoro-3-(3-isopropyl-[1,2,4]oxadiazol-5-yl)-phenyl]-amide]	7.00 to 7.96
